This note sets out measurements from patent publication US4971968A, “Pyridazinone derivatives and salts thereof” (Mitsubishi Kasei Corporation, priority 1983, dated 1990).

Data set [1] concerns papillary muscle of dog. The data set can be described thus: Effect on contraction of an isolated and cross-circulated papillary muscle preparation of the dog. The conditions noted are these: Canis lupus familiaris, read-out: Contraction of papillary muscle of dog, increase; for activation at 0.01 mg: 10 μg i.a.; for activation at 0.03 mg: 30 μg i.a. The procedure: 1. Effect on contraction of an isolated and cross-circulated papillary muscle preparation of the dog
An isolated and cross-circulated papillary muscle preparation of the dog was prepared by Endo and Hashimoto's method (referred to American Journal of Physiology, 218, 1459-1463, 1970). The effect of the compound was measured by closely intraarterially injecting the compound dissolved in a solvent to the papillary muscle for the purpose of recording its effect on contraction of papillary muscle.

Data set [2] relates to left atrium of guinea pig. The data set can be described thus: Effect on contraction of an isolated left atrium of the guinea pig. The conditions noted are these: Cavia porcellus, read-out: Contraction of left atrium of guinea pig, increase; for activation at 30 µg/mL: 3 × 10^-5 g/ml; for activation at 10 µg/mL: 10^-5 g/ml. As to the method:
2. Effect on contraction of an isolated left atrium of the guinea pig
A left atrium was isolated from a male guinea pig with 200-300 g of body weight soon after striking on the back of its head. The mitral orifice was fixed to the bottom of an organ bath filled with 30 ml of Krebs-Henseleit solution maintained at 35° C. A gas mixture comprising 95% of O2 and 5% of CO2 was passed through the Krebs-Henseleit solution in the organ bath. Isometric tension was measured by connecting a left auricle of heart and a transducer by a yarn. A resting tension of 0.5 g was given to the atrium, which was then electrically driven with square pulses with duration of 1 msec and voltage of 1.5 times as much as threshold in the rate of 2 Hz via dipolar platinum electrodes.
After stabilizing the atrium for 30 minutes from its preparation, the compound dissolved in a solvent was added to the organ bath to measure its effect.

Data set [3] has as its system Anesthetized dog. The data set can be described thus: Effects on myocardial contraction in anesthetized dogs. To be noted: for Anesthetized dog, CO (cardiac output) increase: aortic blood flow as index. It is filed as in vivo, dog (male and female mongrel dogs). As to the method:
3. Effects on myocardial contraction in anesthetized dogs
Male and female mongrel dogs with body weight of 8-15 kg were used. A dog was anesthetized by intraveneous injection of 30 mg/kg of sodium pentobarbital and practiced artificial respiration. The dog was thoractomized between fourth and fifth costa which was cut off. The pericardium was incised to expose heart. Blood flow through the aorta, which was measured with an electromagnetic blood flowmeter whose probe was attached to the ascending aorta, was used as an approximate index of cardiac output (CO). Left ventricular pressure (LVP) was measured with a Miller Catheter-tip pressure transducer and the first derivative of the LVP (dP/dt) was measured with a differentiater. Contraction of right ventricular muscle (Cont) was determined with a strain-gauge attached to the wall. Systemic blood pressure was measured from the left femoral artery. Heart rate was measured with electrocardiogram (lead II) and a cardiotachometer. The compound dissolved in a solvent was administered intravenously from a left femoral vein.

Data set [4] in a line: Acute toxicity (LD50) for intravenous and oral administration in male mice. To be noted: mouse, in vivo. The procedure: Acute toxicity (LD50) for intravenous and oral administration in male mice was determined by the method of […] and Wilcoxon (referred to Journal of Pharmacology and Experimental Therapeutics, 96, 99-113, 1949).

Regarding `O=C1CCC(c2ccc(Nc3ccncc3)cc2)=NN1` [6-[4-(4'-pyridyl)aminophenyl]-4,5-dihydro-3(2H)-pyridazinone], in data set [1], the activation at 0.01 mg turned out to be 13.2% and the activation at 0.03 mg worked out at 15.4%. For the same compound, in data set [2], the activation at 30 µg/mL turned out to be 138% and the activation at 10 µg/mL came out at 115%. Moreover, in data set [3] (10 μg/kg i.v.), the “Anesthetized dog, Cont (contraction of right ventricular muscle) increase” value was 23%; the “Anesthetized dog, dP/dt max increase” value is reported as 45%; the “Anesthetized dog, CO (cardiac output) increase” value is on record as 13%. In addition, in data set [3] (30 μg/kg i.v.), the “Anesthetized dog, Cont (contraction of right ventricular muscle) increase” value came to 57%; the “Anesthetized dog, dP/dt max increase” value amounted to 93%; the “Anesthetized dog, CO (cardiac output) increase” value was 28%. For the same compound, in data set [4] (iv), the LD50 worked out at 97 mg/kg. Also, the LD50 in data set [4] (po) is 341 mg/kg.

Take `CC1CC(c2ccc(Nc3ccncc3)cc2)=NNC1=O` (stereo not drawn) [6-[4-(4'-pyridyl)aminophenyl]-4-methyl-4,5-dihydro-3(2H)pyridazinone]: in data set [1], the activation at 0.01 mg was 22.6% and the activation at 0.03 mg came to 50%. Besides, in data set [2], the activation at 30 µg/mL turned out to be 109% and the activation at 10 µg/mL turned out to be 85.9%. Besides, in data set [3] (30 μg/kg i.v.), the “Anesthetized dog, Cont (contraction of right ventricular muscle) increase” value worked out at 21.6%; the “Anesthetized dog, dP/dt max increase” value worked out at 29.1%; the “Anesthetized dog, CO (cardiac output) increase” value came out at 8.6%. Further, in data set [3] (100 μg/kg i.v.), the “Anesthetized dog, Cont (contraction of right ventricular muscle) increase” value worked out at 64.0%; the “Anesthetized dog, dP/dt max increase” value stood at 64.7%; the “Anesthetized dog, CO (cardiac output) increase” value stood at 26.7%.

Consider `CC1CC(=O)NN=C1c1ccc(Nc2ccncc2)cc1` (stereo not drawn) [6-[4-(4'-pyridyl)aminophenyl]-5-methyl-4,5-dihydro-3(2H)pyridazinone], for which the activation at 0.003 mg in data set [1] (3 μg i.a.) is 28.6%. Moreover, the activation at 0.01 mg in data set [1] came to 38.7%. In data set [2], the activation at 30 µg/mL amounted to 97.9% and the activation at 10 µg/mL turned out to be 86.6%. For the same compound, in data set [3] (3 μg/kg i.v.), the “Anesthetized dog, Cont (contraction of right ventricular muscle) increase” value is reported as 13.3%; the “Anesthetized dog, dP/dt max increase” value is given as 14.4%; the “Anesthetized dog, CO (cardiac output) increase” value was found to be 14.4%. Besides, in data set [3] (10 μg/kg i.v.), the “Anesthetized dog, Cont (contraction of right ventricular muscle) increase” value came out at 75.9%; the “Anesthetized dog, dP/dt max increase” value is recorded as 73.8%; the “Anesthetized dog, CO (cardiac output) increase” value came out at 26.7%.

Regarding `O=C1CCC(c2ccc(Nc3ncccn3)cc2)=NN1` [6-[4-(2'-pyrimidinyl)aminophenyl]-4,5-dihydro-3(2H)-pyridazinone], the activation at 0.03 mg in data set [1] is 5.7%. In data set [1] (100 μg i.a.), the activation at 0.1 mg amounted to 15.9%. In data set [2], the activation at 30 µg/mL is 66% and the activation at 10 µg/mL was 42%.
